Columns and labels:
[1] = test system: carbonic anhydrase II; conditions: ref WOMBAT (26); cited from earlier work
[2] = target: human 5-HT2A receptor (Homo sapiens, UniProt P28223); assay: cell-based
[3] = target: σ1 receptor; conditions: read-out: Kd for σ1; cited from earlier work
[4] = test system: hERG channel; conditions: cited from earlier work
[5] = target: 5-HT1D receptor (Homo sapiens, UniProt P28221); conditions: ref Supplementary Table 3; cited from earlier work
[6] = average; cited from earlier work
[7] = target: Histamine H4 receptor (Homo sapiens, UniProt Q9H3N8); assay: biochemical; format: binding
Chain of Histamine H4 receptor (Q9H3N8 whole entry, species assumed): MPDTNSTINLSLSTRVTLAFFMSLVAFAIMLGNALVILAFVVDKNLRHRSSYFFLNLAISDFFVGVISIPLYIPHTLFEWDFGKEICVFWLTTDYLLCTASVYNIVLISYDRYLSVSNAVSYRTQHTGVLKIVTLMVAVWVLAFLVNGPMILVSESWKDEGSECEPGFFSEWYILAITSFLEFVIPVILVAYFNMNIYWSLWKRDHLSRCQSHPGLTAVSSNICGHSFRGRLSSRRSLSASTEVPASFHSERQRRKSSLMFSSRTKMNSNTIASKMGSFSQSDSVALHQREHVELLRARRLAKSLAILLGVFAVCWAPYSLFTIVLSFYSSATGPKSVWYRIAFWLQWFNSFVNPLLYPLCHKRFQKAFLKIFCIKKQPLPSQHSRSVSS

[8] = test system: adrenergic α2; conditions: ref Supplementary Table 3; cited from earlier work
[9] = target: μ Opioid receptor (Homo sapiens, UniProt P35372); assay: biochemical; format: binding
Chain of μ Opioid receptor (P35372 whole entry, species assumed): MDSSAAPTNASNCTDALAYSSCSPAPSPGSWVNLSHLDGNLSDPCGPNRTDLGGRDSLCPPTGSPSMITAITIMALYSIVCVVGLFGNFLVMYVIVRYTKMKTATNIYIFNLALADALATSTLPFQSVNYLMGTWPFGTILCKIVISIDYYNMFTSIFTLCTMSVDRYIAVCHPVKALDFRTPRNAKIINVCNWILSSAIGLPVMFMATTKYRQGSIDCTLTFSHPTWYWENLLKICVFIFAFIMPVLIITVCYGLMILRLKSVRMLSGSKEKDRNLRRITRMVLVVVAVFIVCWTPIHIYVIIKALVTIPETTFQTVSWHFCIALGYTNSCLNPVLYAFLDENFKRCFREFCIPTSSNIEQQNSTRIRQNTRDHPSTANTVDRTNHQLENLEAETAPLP

[10] = target: T1, α2A adrenergic receptor (Homo sapiens, UniProt P08913); assay: Radioligand competition binding, α2A
T1 sequence (P08913 1-465): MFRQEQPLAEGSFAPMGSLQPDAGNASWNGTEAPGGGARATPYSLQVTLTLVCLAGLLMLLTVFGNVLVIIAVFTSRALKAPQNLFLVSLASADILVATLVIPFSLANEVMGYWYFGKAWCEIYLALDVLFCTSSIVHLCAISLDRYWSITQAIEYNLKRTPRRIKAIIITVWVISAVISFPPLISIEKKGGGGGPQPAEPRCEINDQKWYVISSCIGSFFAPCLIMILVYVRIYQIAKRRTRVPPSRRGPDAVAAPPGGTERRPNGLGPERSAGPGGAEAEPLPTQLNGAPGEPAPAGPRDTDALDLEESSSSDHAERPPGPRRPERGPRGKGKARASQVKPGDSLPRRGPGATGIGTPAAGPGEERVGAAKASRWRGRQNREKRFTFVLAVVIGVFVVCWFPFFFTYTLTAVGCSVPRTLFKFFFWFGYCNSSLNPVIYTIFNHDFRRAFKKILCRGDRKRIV

Chain of human 5-HT2A receptor (P28223 whole entry): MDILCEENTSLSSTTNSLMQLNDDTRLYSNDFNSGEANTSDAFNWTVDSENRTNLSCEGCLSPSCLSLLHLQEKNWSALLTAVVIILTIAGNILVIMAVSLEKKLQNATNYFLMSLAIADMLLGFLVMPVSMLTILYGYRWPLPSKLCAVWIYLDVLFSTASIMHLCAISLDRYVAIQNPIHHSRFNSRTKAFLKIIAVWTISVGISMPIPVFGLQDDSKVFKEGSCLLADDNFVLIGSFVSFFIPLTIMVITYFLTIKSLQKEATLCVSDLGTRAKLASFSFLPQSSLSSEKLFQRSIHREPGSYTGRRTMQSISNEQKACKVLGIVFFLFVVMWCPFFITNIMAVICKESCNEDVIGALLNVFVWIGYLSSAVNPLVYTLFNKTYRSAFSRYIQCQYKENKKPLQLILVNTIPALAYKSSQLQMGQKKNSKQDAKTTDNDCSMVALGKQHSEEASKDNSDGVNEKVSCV
Chain of 5-HT1D receptor (P28221 whole entry): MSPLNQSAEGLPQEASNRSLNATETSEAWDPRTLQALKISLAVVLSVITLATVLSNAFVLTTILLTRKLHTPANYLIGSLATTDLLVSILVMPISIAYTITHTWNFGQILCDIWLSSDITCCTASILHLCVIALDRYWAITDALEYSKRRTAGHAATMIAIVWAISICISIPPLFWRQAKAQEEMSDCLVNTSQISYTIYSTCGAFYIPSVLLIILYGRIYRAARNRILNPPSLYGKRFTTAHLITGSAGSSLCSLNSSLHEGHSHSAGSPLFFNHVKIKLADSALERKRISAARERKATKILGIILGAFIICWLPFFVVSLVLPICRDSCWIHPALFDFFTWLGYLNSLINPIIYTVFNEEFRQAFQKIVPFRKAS

CCN[C@H]1CN(CCCOC)S(=O)(=O)c2sc(S(N)(=O)=O)cc21 [Azopt, brinzolamide]
binds carbonic anhydrase II at [1]: 3 nM

CN(C)CCc1c[nH]c2ccccc12 [DMT, N,N-dimethyltryptamine]
EC50 [2]: 0.118 ± 0.029 µM | Kd [3]: 14.8 µM

O=c1[nH]c2ccccc2n1CCCN1CCC(n2c(=O)[nH]c3cc(Cl)ccc32)CC1 [Motilium]
IC50 [4]: 5 µM

CCCN1C[C@H](CSC)C[C@@H]2c3cccc4[nH]cc(c34)C[C@H]21 [Permax, pergolide]
reported to bind the 5-HT1D receptor at [5]: 13 nM

CC(C)Nc1cccnc1N1CCN(C(=O)c2cc3cc(NS(C)(=O)=O)ccc3[nH]2)CC1 [Rescriptor, Delavirdine]
steady-state plasma concentration Cmin [6]: 15 µM | Ki [7]: 5.3 µM

CCN(CC)C(=O)N[C@H]1C=C2c3cccc4[nH]cc(c34)C[C@H]2N(C)C1 [Revanil, lisuride]
reported to bind adrenergic α2 at [8]: 0.055 nM

CC(C(O)c1ccc(O)cc1)N1CCC(Cc2ccccc2)CC1 (stereo not shown) [Vadilex, Ifenprodil]
Ki [9]: 1.4 µM

COc1cc2c(cc1OC)C1CC(=O)C(CC(C)C)CN1CC2 (stereo not shown) [Xenazine]
Ki [10]: 0.96 µM

Source: paper PMC2784146 (Nature, 2009)
